pKi: −log10 of the molar value.

The target in the assay is Carbonic anhydrase 1 (Homo sapiens, UniProt P00915).
Chain of Carbonic anhydrase 1 (P00915 whole entry): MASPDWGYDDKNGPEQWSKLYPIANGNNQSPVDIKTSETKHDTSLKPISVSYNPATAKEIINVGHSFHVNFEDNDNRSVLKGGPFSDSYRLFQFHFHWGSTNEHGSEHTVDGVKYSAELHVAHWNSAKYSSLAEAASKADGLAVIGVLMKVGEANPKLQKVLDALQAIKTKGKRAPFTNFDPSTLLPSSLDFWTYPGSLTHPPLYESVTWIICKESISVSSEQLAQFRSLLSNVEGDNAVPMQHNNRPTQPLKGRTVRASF
Regarding `Nc1ccc2nc(S(N)(=O)=O)sc2c1`, the pKi (as a rule, the negative decadic logarithm of the Ki, by convention in mol/L) is 7.26.

Take `NS(=O)(=O)c1nc2ccc(OCCO)cc2s1`: the pKi was 4.64. Compared with the last molecule, the pKi is 2.62 log units lower.

For the molecule `Cn1nc(S(N)(=O)=O)s/c1=N/S(=O)(=O)c1ccc(N)cc1`, the pKi was 6.73.

The values above are taken from ChEMBL document CHEMBL2375240, “The alpha-carbonic anhydrase from the thermophilic bacterium Sulfurihydrogenibium yellowstonense YO3AOP1 is highly susceptible to inhibition by sulfonamides” (Bioorg Med Chem, 2013).
